Drawing on ChEMBL document CHEMBL1139539, “Structure-based characterization and optimization of novel hydrophobic binding interactions in a series of pyrrolidine influenza neuraminidase inhibitors” (J Med Chem, 2005), this text covers EC50 for 4 compounds.

Chain of Neuraminidase (P03474 whole entry): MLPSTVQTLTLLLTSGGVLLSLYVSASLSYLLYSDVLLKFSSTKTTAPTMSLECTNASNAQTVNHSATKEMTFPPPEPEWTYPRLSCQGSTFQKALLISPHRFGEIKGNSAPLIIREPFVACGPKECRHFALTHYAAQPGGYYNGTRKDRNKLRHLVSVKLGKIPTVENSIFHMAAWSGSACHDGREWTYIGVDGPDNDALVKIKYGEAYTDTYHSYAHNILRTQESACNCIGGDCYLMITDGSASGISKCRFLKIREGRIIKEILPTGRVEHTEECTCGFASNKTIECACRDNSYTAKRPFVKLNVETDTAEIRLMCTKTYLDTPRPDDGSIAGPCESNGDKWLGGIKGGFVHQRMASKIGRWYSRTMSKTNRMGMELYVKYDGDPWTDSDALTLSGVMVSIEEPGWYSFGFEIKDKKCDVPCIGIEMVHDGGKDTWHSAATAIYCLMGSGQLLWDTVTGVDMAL

The experiment addresses Neuraminidase (Influenza B virus (strain B/Lee/1940), UniProt P03474). Description: Effective concentration against neuraminidase of Influenza B virus B/Memphis strain.
Consider `C=C[C@@H]1C[C@H](C(=O)O)N[C@H]1[C@H](CC(C)C)NC(C)=O`, for which the EC50 (usually the concentration needed to bring the measured effect to its halfway point) is 23 µM.

With `CC(=O)N[C@@H](CC(C)C)[C@@H]1N[C@@H](C(=O)O)C[C@H]1C=C(F)F`, the EC50 amounted to 9 µM.

In turn, `CC(=O)N[C@@H](CC(C)C)[C@@H]1N[C@@H](C(=O)O)C[C@H]1c1c[nH]cn1` came in with an EC50 of 11 µM.

On to `CC(=O)N[C@@H](CC(C)C)[C@@H]1N[C@@H](C(=O)O)C[C@H]1c1nccs1`, for which the EC50 is 6 µM.
